Results as given in ChEMBL document CHEMBL1129269, “1-aryl-4-[(1-tetralinyl)alkyl]piperazines: alkylamido and alkylamino derivatives. Synthesis, 5-HT1A receptor affinity, and selectivity. 3” (J Med Chem, 1996).

How the values were obtained:
[1] = target: T1, 5-hydroxytryptamine receptor 1A (Rattus norvegicus, UniProt P19327); assay: Binding affinity against 5-hydroxytryptamine 1A receptor in rat hippocampus membranes using [3H]8-OH-DPAT as radioligand; assay type: cell membranes, Membrane
T1 sequence (P19327 whole entry): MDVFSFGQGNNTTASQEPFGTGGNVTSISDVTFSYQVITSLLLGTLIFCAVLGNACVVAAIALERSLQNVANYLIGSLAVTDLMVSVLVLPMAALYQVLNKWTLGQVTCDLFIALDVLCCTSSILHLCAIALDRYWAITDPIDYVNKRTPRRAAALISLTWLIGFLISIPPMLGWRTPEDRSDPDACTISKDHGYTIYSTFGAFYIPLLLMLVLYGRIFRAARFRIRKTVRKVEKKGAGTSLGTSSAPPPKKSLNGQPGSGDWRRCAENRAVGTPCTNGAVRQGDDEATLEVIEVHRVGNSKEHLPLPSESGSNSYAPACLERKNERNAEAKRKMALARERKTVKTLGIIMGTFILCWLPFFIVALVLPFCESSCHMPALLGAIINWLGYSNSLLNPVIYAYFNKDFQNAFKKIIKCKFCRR

[2] = target: T2, Adrenergic receptor alpha-2 (Rattus norvegicus, UniProt P22086+P19328+P22909); assay: Binding affinity against Alpha-2 adrenergic receptor in rat brain membrane using [3H]yohimbine as radioligand; assay type: cell membranes
T2 sequence (P22086 whole entry): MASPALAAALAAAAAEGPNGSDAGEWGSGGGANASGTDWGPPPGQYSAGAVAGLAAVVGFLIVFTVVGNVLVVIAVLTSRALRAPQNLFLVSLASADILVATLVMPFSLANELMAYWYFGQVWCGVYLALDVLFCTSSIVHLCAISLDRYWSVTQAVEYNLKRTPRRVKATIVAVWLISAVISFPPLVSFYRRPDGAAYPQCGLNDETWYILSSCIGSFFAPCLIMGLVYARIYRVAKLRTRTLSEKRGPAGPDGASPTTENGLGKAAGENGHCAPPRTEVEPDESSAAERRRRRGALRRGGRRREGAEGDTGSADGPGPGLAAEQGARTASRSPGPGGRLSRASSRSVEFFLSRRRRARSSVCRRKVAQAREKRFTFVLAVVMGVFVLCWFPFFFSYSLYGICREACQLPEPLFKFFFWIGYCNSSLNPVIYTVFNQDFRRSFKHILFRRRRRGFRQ
T2 sequence (P19328 whole entry): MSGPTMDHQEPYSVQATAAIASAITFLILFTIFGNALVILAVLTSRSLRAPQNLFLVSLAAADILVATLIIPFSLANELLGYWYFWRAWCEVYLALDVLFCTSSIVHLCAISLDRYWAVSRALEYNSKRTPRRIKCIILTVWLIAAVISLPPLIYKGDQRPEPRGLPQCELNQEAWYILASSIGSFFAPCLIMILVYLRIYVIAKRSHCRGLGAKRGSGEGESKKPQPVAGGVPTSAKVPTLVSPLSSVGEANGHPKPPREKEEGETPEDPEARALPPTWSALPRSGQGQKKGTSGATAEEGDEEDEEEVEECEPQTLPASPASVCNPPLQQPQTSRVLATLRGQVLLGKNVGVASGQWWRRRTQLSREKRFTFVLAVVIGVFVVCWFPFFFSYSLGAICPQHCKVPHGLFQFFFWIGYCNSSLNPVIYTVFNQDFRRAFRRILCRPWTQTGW
T2 sequence (P22909 whole entry): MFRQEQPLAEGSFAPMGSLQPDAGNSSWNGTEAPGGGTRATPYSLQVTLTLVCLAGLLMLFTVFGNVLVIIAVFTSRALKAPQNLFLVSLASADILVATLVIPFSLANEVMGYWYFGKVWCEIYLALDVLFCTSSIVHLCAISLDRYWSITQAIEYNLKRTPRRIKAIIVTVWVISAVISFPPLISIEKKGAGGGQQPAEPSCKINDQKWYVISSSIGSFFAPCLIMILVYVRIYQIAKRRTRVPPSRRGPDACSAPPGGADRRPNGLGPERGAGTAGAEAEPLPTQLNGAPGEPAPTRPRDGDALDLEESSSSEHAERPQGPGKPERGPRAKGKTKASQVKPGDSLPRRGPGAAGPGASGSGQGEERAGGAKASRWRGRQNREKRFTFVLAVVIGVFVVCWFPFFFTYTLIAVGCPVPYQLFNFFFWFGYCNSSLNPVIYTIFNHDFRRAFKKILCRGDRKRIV

[3] = target: T3, Adrenergic receptor alpha-1 (Rattus norvegicus, UniProt P15823+P23944+P43140); assay: Binding affinity against Alpha-1 adrenergic receptor in rat brain membrane using [3H]prazosin as radioligand; assay type: cell membranes
T3 sequence (P15823 whole entry): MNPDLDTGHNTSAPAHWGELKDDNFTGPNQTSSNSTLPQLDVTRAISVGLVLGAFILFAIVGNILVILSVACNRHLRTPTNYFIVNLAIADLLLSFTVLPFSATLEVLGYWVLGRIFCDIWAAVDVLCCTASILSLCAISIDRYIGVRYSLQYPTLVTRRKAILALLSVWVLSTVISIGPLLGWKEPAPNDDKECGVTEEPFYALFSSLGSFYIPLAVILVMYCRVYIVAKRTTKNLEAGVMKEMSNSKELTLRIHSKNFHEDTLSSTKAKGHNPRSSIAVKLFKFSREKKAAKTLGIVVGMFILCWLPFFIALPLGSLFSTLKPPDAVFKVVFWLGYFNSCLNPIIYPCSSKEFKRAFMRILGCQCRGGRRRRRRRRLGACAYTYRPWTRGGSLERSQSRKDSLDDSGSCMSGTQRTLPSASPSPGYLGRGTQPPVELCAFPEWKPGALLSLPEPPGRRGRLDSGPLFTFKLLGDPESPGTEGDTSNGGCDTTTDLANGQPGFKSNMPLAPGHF
T3 sequence (P23944 whole entry): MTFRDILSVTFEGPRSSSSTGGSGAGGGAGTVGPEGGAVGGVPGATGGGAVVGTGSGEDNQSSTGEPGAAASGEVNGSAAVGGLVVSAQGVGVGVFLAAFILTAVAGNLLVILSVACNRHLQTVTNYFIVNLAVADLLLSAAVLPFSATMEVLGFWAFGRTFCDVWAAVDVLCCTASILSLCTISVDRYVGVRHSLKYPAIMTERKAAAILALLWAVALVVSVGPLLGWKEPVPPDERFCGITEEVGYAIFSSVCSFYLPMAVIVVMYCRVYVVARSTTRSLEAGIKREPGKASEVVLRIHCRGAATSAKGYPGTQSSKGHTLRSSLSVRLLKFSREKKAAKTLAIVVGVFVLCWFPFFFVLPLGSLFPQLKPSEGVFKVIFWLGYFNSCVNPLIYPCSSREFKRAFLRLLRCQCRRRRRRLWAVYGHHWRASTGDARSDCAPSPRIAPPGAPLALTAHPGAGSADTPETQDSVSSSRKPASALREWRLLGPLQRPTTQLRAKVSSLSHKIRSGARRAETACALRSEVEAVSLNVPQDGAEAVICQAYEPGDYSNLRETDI
T3 sequence (P43140 whole entry): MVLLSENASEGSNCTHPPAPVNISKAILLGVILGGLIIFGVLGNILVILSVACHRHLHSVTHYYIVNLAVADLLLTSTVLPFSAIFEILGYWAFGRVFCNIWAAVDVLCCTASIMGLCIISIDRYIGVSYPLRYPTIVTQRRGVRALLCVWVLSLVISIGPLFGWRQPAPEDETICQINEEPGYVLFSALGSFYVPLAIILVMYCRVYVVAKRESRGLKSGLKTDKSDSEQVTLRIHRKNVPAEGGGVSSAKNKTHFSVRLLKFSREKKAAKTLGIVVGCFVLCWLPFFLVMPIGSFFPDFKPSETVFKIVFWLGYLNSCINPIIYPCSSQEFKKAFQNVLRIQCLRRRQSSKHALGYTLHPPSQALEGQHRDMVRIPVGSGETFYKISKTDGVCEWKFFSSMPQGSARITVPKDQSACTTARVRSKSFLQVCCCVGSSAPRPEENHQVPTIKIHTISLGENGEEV

[4] = target: D(2) dopamine receptor (Rattus norvegicus, UniProt P61169); assay: Binding affinity against Dopamine receptor D2 in rat striatal membrane using [3H]spiroperidol as radioligand; assay type: cell membranes, Striatum
[5] = target: Serotonin 2 (5-HT2) receptor (Rattus norvegicus, UniProt P30994+P08909+P14842); assay: Binding affinity against 5-hydroxytryptamine 2 receptor in rat brain using [3H]ketanserin as radioligand; assay type: tissue-based
[6] = target: T1, 5-hydroxytryptamine receptor 1A; assay: Binding affinity against serotonin 5-hydroxytryptamine 1A receptor in rat hippocampus membrane using [3H]8-OH-DPAT as radioligand; assay type: cell membranes

Chain of D(2) dopamine receptor (P61169 whole entry): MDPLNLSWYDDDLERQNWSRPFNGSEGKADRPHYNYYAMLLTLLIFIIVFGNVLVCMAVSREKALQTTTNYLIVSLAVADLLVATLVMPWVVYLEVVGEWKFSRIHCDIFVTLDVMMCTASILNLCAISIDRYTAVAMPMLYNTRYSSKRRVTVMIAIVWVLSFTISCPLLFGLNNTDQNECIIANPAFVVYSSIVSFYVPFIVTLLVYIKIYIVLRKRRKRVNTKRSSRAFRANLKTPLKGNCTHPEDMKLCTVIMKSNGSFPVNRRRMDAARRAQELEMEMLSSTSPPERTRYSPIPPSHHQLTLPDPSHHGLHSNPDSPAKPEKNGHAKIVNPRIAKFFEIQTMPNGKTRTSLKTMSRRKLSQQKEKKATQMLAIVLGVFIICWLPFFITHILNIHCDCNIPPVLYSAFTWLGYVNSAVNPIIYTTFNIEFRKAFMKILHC

Row | SMILES | IC50 [1] [nM] | IC50 [2] [nM] | IC50 [3] [nM] | IC50 [4] [nM] | IC50 [5] [nM] | IC50 [6] [nM]
1 | COc1ccccc1N1CCN(CCCNC2CCCc3c(OC)cccc32)CC1 (stereo unspecified) | 10 | 458 | 881 | 1060 | 3300 | 
2 | COc1cccc2c1CCCC2C(=O)NCCN1CCN(c2ccccn2)CC1 (stereo unspecified) |  | 7220 | 838 | 2440 | 1270 | 173
3 | COc1cccc2c1CCCC2CNCCN1CCN(c2ccccc2)CC1 (stereo unspecified) | 116 | 1420 | 1150 | 1100 | 1900 | 
4 | COc1cccc2c1CCCC2NCCN1CCN(c2ccccn2)CC1 (stereo unspecified) |  | 95 | 725 | 1850 | 9140 | 
5 | COc1cccc2c1CCCC2NC(=O)CCN1CCN(c2ccccc2)CC1 (stereo unspecified) | 311 | 2680 | 313 | 2970 | 1200 | 
6 | COc1cccc2c1CCCC2C(=O)N(C)CCCN1CCN(c2ccccc2)CC1 (stereo unspecified) | 134 | 144 | 159 | 594 | 134 | 
7 | COc1cccc2c1CCCC2NC(=O)CN1CCN(c2ccccc2)CC1 (stereo unspecified) |  | > 10000 | 5980 | > 10000 | > 10000 | 
8 | COc1ccccc1N1CCN(CCCNC(=O)C2CCCc3c(OC)cccc32)CC1 (stereo unspecified) |  | 564 | 84 | 116 | 2040 | 16
9 | COc1cccc2c1CCCC2C(=O)NCCCN1CCN(c2ccccc2)CC1 (stereo unspecified) |  | 186 | 19 | 783 | 349 | 63
10 | COc1ccccc1N1CCN(CCNC(=O)C2CCCc3c(OC)cccc32)CC1 (stereo unspecified) |  | 1380 |  | 448 | 1710 | 35
11 | COc1ccccc1N1CCN(CCCC2CCCc3c(OC)cccc32)CC1 (stereo unspecified) |  | 17 | 6.5 |  | 330 | 0.77
